Literature values in patent US10799486B2 (NORTIC HOLDINGS INC., priority 2016, dated 2020).

Key:
[1] = oral administration
[2] = nimodipine-treated subarachnoid hemorrhage (SAH) patients

COCCOC(=O)C1=C(C)NC(C)=C(C(=O)OC(C)C)C1c1cccc([N+](=O)[O-])c1 (stereo not drawn) [nimodipine, isopropyl 2-methoxyethyl 1,4-dihydro-2,6-dimethyl-4-(m-nitrophenyl)-3,5-pyridinedicarboxylate]
half-life equivalent to earlier elimination rates ([1]; man): 1 to 2 h
Cmax in patients with hepatic cirrhosis versus normal ([1]; hepatic cirrhosis): approximately double that in normal
concentration detected in the cerebrospinal fluid [2]: ≤ 12.5 ng/mL
